From patent publication EP0066987B1, “N-(aryloxyalkyl)-N'-(amino-alkyl) ureas” (A.H. ROBINS COMPANY, INCORPORATED, priority 1981, dated 1982)

Assay: Side effects compared with quinidine and lidocaine
Conditions: as compared to quinidine and lidocaine

CC(C)N(CCOc1cc(Cl)cc(Cl)c1)C(=O)NCCN(C)C.O=C(O)/C=C\C(=O)O [Example 3, N-[2-(3,5-Dichlorophenoxy)ethyl]-N'-[2-(dimethylamino)ethyl]-N-(1-methylethyl)urea, maleate [1:1]]
CNS side effects: minimal CNS side effects
